Patent publication US11414406B2, “Antagonists of the muscarinic acetylcholine receptor M4” (Vanderbilt University, priority 2018, dated 2022)
Read-outs that look alike come from different tables or passages of the source.

Biological target: T1, Human M4 (Homo sapiens, UniProt P08173)
T1 construct: expressed in transfected cells
T1 sequence (P08173 1-479): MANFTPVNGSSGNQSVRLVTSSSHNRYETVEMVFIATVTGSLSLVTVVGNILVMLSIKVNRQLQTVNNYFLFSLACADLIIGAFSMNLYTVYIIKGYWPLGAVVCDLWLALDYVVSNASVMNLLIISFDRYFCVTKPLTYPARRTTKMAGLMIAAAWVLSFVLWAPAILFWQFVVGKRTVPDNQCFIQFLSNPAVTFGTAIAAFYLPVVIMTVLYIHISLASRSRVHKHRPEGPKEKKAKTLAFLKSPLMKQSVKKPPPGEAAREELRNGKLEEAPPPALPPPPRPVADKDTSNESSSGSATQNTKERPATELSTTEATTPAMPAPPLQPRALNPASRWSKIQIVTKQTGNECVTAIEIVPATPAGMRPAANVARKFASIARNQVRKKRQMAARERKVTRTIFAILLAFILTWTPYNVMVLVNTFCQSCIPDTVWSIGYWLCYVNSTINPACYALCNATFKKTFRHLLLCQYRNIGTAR
Experiment: mAChR M4 cell-based functional assay (calcium flux, decrease of EC80 acetylcholine response)
Settings: for IC50: decrease of response to EC80 acetylcholine
Protocol: Human M4 cDNA, along with the chimeric G protein Gqi5, were transfected into Chinese hamster ovary (CHO-K1) cells purchased from the American Type Culture Collection using Lipofectamine2000. M4/Gqi5/CHO cells were grown in Ham's F-12 medium containing 10% heat-inactivated fetal bovine serum (FBS), 20 mM HEPES, 500 μg/mL G418 sulfate, and 200 μg/mL Hygromycin B.
For high throughput measurement of agonist-evoked increases in intracellular calcium, CHO-K1 cells stably expressing muscarinic receptors were plated in growth medium lacking G418 and hygromycin at 15,000 cells/20 μL/well in Greiner 384-well black-walled, tissue culture (TC)-treated, clear-bottom plates (VWR). Cells were incubated overnight at 37° C. and 5% CO2. The next day, cells were washed using an ELX 405 (BioTek) with assay buffer; the final volume was then aspirated to 20 μL. Next, 20 μL of a 2.3 μM stock of Fluo-4/acetoxymethyl ester (Invitrogen, Carlsbad, Calif.), prepared as a 2.3 mM stock in DMSO and mixed in a 1:1 ratio with 10% (w/v) Pluronic F-127 and diluted in assay buffer, was added to the wells and the cell plates were incubated for 50 min at 37° C. and 5% CO2. Dye was removed by washing with the ELX 405 and the final volume was aspirated to 20 μL. Compound master plates were formatted in a 10 point concentration-response curve (CRC) format (1:3 dilutions) in 100% DMSO with a starting concentration of 10 or 1 mM using a BRAVO liquid handler (Agilent). Test compound CRCs were then transferred to daughter plates (240 nL) using the Echo acoustic plate reformatter (Labcyte, Sunnyvale, Calif.) and then diluted into assay buffer (40 μL) to a 2× stock using a Thermo Fisher Combi (Thermo Fisher Scientific, Waltham, Mass.).
Calcium flux was measured using the Functional Drug Screening System (FDSS) 6000 or 7000 (Hamamatsu Corporation, Tokyo, Japan) as an increase in the fluorescent static ratio. Compounds were applied to cells (20 μL, 2×) using the automated system of the FDSS at 2 seconds into the protocol and the data were collected at 1 Hz. At 143 s, 10 μL of an EC20 concentration of the muscarinic receptor agonist acetylcholine was added (5×), followed by the addition of 12 μL of an EC80 concentration of acetylcholine at the 268 s time point (5×). Agonist activity was analyzed as a concentration-dependent increase in calcium mobilization upon compound addition. Positive allosteric modulator activity was analyzed as a concentration-dependent increase in the EC20 acetylcholine response. Antagonist activity was analyzed as a concentration-dependent decrease in the EC80 acetylcholine response; for the purposes of the tables herein, an IC50 (inhibitory concentration 50) was calculated as a concentration-dependent decrease of the response elicited by an EC80 concentration of acetylcholine. Concentration-response curves were generated using a four-parameter logistical equation in XLFit curve fitting software (HMS, Bridgewater, N.J.) for Excel (Microsoft, Redmond, Wash.) or Prism (GraphPad Software, Inc., San Diego, Calif.) or the Dotmatics software platform (Dotmatics, Bishop's Stortford, UK).
Compounds were synthesized as described above. Activity (IC50 and Emin) was determined in the inAChR M4 cell-based functional assay as described above and the data are shown in Table 2. The compound numbers correspond to the compound numbers used in Examples 1 and 2 and Tables 1 and 2.

[1] = M4/Gqi5/CHO-K1 cells, % ACh maximum at 30 μM, read-out: Emin (% ACh maximum at 30 μM)

remaining activity at 30 µM [1] | IC50 (M4/Gqi5/CHO-K1 cells) | Structure (SMILES) | remaining activity at 30 µM (CHO-K1, read-out: Emin (% ACh maximum at 30 μM))
30% |  | c1cc(C2CC2)ncc1-c1ccc(N[C@H]2[C@@H]3CN(CC4CCOCC4)C[C@@H]32)nn1 [Compound 21, (1R,5S,6s)-N-[6-(6-cyclopropyl-3-pyridyl)pyridazin-3-yl]-3-(tetrahydropyran-4-ylmethyl)-3-azabicyclo[3.1.0]hexan-6-amine] | 
24% |  | Cc1nn(C)cc1-c1ccc(N[C@H]2[C@@H]3CN(CC(C)C(C)(C)C)C[C@@H]32)nn1 (stereo partly drawn) [Compound 3, (1R,5S,6s)-N-[6-(1,3-dimethylpyrazol-4-yl)pyridazin-3-yl]-3-(2,3,3-trimethylbutyl)-3-azabicyclo[3.1.0]hexan-6-amme] | 
28% |  | c1ccc(-c2ccc(N[C@H]3[C@@H]4CN(CC5CCOCC5)C[C@@H]43)nn2)cc1 [Compound 28, (1R,5S,6s)-N-(6-phenylpyridazin-3yl)-3-(tetrahydropyran-4-ylmethyl)-3-azabicyclo[3.1.0]hexan-6-amine] | 
13% | 3760 nM | c1cnc2ccc(-c3ccc(N[C@H]4[C@@H]5CN(CC6CCOCC6)C[C@@H]54)nn3)cc2c1 [Compound 17, (1R,5S,6s)-N-[6-(6-quinolyl)pyridazin-3-yl]-3-(tetrahydropyran-4-ylmethyl)-3-azabicyclo[3.1.0]hexan-6-amine] | 
6% | 889 nM | Fc1ccc(Cl)c(-c2ccc(N[C@H]3[C@@H]4CN(Cc5ccc6c(c5)OCO6)C[C@@H]43)nn2)c1 [Compound 25, (1R,5S,6s)-3-(1,3-benzodioxol-5-ylmethyl)-N-[6-(2-chloro-5-fluoro-phenyl)pyridazin-3-yl]-3-azabicyclo[3.1.0]hexan-6-amine] | 
14% | 3180 nM | Fc1cccc(Cl)c1-c1ccc(N[C@H]2[C@@H]3CN(CC4CCOCC4)C[C@@H]32)nn1 [Compound 15, (1R,5S,6s)-N-[6-(2-chloro-6-fluoro-phenyl)pyridazin-3-yl]-3-(tetrahydropyran-4-ylmethyl)-3-azabicyclo[3.1.0]hexan-6-amine] | 
4% | 25.5 nM | CC(C)(C)CCN1C[C@@H]2[C@H](C1)[C@H]2Nc1ccc(-c2cc(F)ccc2Cl)nn1 [Compound 27, (1R,5S,6s)-N-[6-(2-chloro-5-fluoro-phenyl)pyridazin-3-yl]-3-(3,3-dimethylbutyl)-3-azabicyclo[3.1.0]hexan-6-amine] | 
32.5% |  | Cc1nn(C)cc1-c1ccc(CN[C@H]2[C@@H]3CN(CC4CCCCC4)C[C@@H]32)nn1 [Compound 7, (1R,5S,6s)-3-(cyclohexylmethyl)-N-((6-(1,3-dimethylpyrazol-4-yl)pyridazin-3-yl)methyl)-3-azabicyclo[3.1.0]hexan-6-amine] | 
13% | 4760 nM | Cc1cc(CN2C[C@@H]3[C@H](C2)[C@H]3Nc2ccc(-c3cc(F)ccc3Cl)nn2)nn1C [Compound 26, (1R,5S,6s)-N-[6-(2-chloro-5-fluoro-phenyl)pyridazin-3-yl]-3-[(1,5-dimethylpyrazol-3-yl)methyl]-3-azabicyclo[3.1.0]hexan-6-amine] | 
16% |  | c1cc2c(cc1-c1ccc(N[C@H]3[C@@H]4CN(CC5CCOCC5)C[C@@H]43)nn1)OCO2 [Compound 30, (1R,5S,6s)-N-[6-(1,3-benzodioxol-5-yl)pyridazin-3-yl]-3-(tetrahydropyran-4-ylmethyl)-3-azabicyclo[3.1.0]hexan-6-amine] | 
36% |  | Fc1ccc(F)c(-c2ccc(N[C@H]3[C@@H]4CN(Cc5ccc6c(c5)OCO6)C[C@@H]43)nn2)c1 [Compound 35, (1R,5S,6s)-3-(1,3-benzodioxol-5-ylmethyl)-N-[6-(2,5-difluorophenyl)pyridazin-3-yl]-3-azabicyclo[3.1.0]hexan-6-amine] | 
37% |  | Fc1ccc(-c2ccc(N[C@H]3[C@@H]4CN(CC5CCOCC5)C[C@@H]43)nn2)cc1 [Compound 10, (1R,5S,6s)-N-[6-(4-fluorophenyl)pyridazin-3-yl]-3-(tetrahydropyran-4-ylmethyl)-3-azabicyclo[3.1.0]hexan-6-amine] | 
39% |  | CC(=O)Nc1ccc(-c2ccc(N[C@H]3[C@@H]4CN(CC5CCOCC5)C[C@@H]43)nn2)cc1 [Compound 19, N-[4-[6-[[(1R,5S,6s)-3-(tetrahydropyran-4-ylmethyl)-3-azabicyclo[3.1.0]hexan-6-yl]amino]pyridazin-3-yl]phenyl]acetamide] | 
4% | 255 nM | CC(C)(C)CCN1C[C@@H]2[C@H](C1)[C@H]2Nc1ccc(-c2cc(F)ccc2F)nn1 [Compound 37, (1R,5S,6s)-N-[6-(2,5-difluorophenyl)pyridazin-3-yl]-3-(3,3-dimethylbutyl)-3-azabicyclo[3.1.0]hexan-6-amine] | 
16% | 6770 nM | Fc1ccc(Cl)c(-c2ccc(N[C@H]3[C@@H]4CN(Cc5ccccn5)C[C@@H]43)nn2)c1 [Compound 24, (1R,5S,6s)-N-[6-(2-chloro-5-fluoro-phenyl)pyridazin-3-yl]-3-(2-pyridylmethyl)-3-azabicyclo[3.1.0]hexan-6-amine] | 
8% | 1850 nM | Fc1cccc(-c2ccc(N[C@H]3[C@@H]4CN(CC5CCOCC5)C[C@@H]43)nn2)c1Cl [Compound 13, (1R,5S,6s)-N-[6-(2-chloro-3-fluoro-phenyl)pyridazin-3-yl]-3-(tetrahydropyran-4-ylmethyl)-3-azabicyclo[3.1.0]hexan-6-amine] | 
39% |  | Fc1ccc(F)c(-c2ccc(N[C@H]3[C@@H]4CN(Cc5ccccc5F)C[C@@H]43)nn2)c1 [Compound 33, (1R,5S,6s)-N-[6-(2,5-difluorophenyl)pyridazin-3-yl]-3-[(2-fluorophenyl)methyl]-3-azabicyclo[3.1.0]hexan-6-amine] | 
40% |  | Fc1ccc(-c2ccc(N[C@H]3[C@@H]4CN(CC5CCOCC5)C[C@@H]43)nn2)c(F)c1 [Compound 32, (1R,5S,6s)-N-[6-(2,4-difluorophenyl)pyridazin-3-yl]-3-(tetrahydropyran-4-ylmethyl)-3-azabicyclo[3.1.0]hexan-6-amine] | 

Structure (SMILES) | remaining activity at 30 µM [1] | IC50 (M4/Gqi5/CHO-K1 cells) | remaining activity at 30 µM (CHO-K1, read-out: Emin (% ACh maximum at 30 μM))
Cc1nn(C)cc1-c1ccc(N[C@H]2[C@@H]3CN(CCC(C)(C)C)C[C@@H]32)nn1 [Compound 1, (1R,5S,6s)-3-(3,3-dimethylbutyl)-N-[6-(1,3-dimethylpyrazol-4-yl)pyridazin-3-yl]-3-azabicyclo[3.1.0]hexan-6-amine] |  | 280 nM | 4.8%
